According to patent US9457093B2, “Solid dispersions of a ERB2 (HER2) inhibitor” (Array BioPharma Inc., priority 2011, dated 2016):

Assay: Dissolution testing at pH 6.5 in phosphate buffer at 37° C.
Format: physicochemical
Settings: pH 6.5 phosphate buffer, about 240 minutes
Description: Dissolution testing was performed at a pH of 6.5 in phosphate buffer. The solid dispersion was suspended in H2O and added directly to the buffer solution at 37° C. The dissolution profile was collected over a period of about 240 minutes. The results are in FIG. 2.
Dissolution testing was performed at a pH of 6.5 in phosphate buffer. The solid dispersion was suspended in H2O and added directly to the buffer solution at 37° C. The dissolution profile was collected over a period of about 240 minutes. The results are in FIG. 3.
Dissolution testing was performed at a pH of 6.5 in phosphate buffer. The solid dispersion was suspended in H2O and added directly to the buffer solution at 37° C. The dissolution profile was collected over a period of about 240 minutes. The results are in FIG. 4.
Dissolution testing was performed at a pH of 6.5 in phosphate buffer. The solid dispersion was suspended in H2O and added directly to the buffer solution at 37° C. The dissolution profile was collected over a period of about 240 minutes. The results are in FIG. 5.
Dissolution testing was performed at a pH of 6.5 in phosphate buffer. The solid dispersion was suspended in H2O and added directly to the buffer solution at 37° C. The dissolution profile was collected over a period of about 240 minutes. The results are in FIG. 6.
Dissolution testing was performed at a pH of 6.5 in phosphate buffer. […]

With `Cc1cc(Nc2ncnc3ccc(NC4=NC(C)(C)CO4)cc23)ccc1Oc1ccn2ncnc2c1` [Example 12, N4-(4-([1,2,4]triazolo[1,5-α]pyridin-7-yloxy)-3-methylphenyl)-N6-(4,4-dimethyl-4,5-dihydrooxazol-2-yl)quinazoline-4,6-diamine freebase hemi-ethanolate] the “AUC for the free drug species” value was 5490 ng·h/mL and the “Cmax for the free drug species” value was 440 ng/mL.
